# In ChEMBL document CHEMBL5661943, “ASAP - In vitro antiviral effect” (2024):
# Columns and labels:
# [1] = test system: Zika virus; assay: Functional CPE-based assay to measure dose dependent changes in antiviral-drug inhibitory efficacy against Zika virus MR766 in Vero E6 miRFP670 cells (cotreated with P-gp inhibitor, CP100356). Cells are treated with antiviral candidates that are serially diluted. EC50 is reported via analysis of MTS assay as a readout of CPE. The assay has been performed by KU Leuven.; assay type: organism-based, Chlorocebus sabaeus, Vero C1008; settings: Zika virus; for EC90: P-gp concentration 500 nM, P-gp inhibitor CP100356
# [2] = test system: dengue virus type 2; assay: Functional assay to measure dose dependent changes in antiviral-drug inhibitory efficacy against Dengue virus type 2 New Guinea C in Vero E6 miRFP670 cells (cotreated with P-gp inhibitor, CP100356). Cells are treated with antiviral candidates that are serially diluted, following infection, cells are fixed. EC50 is reported via analysis of fluorescence intensity using high-content imager. The …; assay type: organism-based, Chlorocebus sabaeus, Vero C1008; settings: Dengue virus; for EC90: P-gp concentration 500 nM, P-gp inhibitor CP100356
smiles,measurement,setting,value
O=C(Nc1cc2c(cc1Br)CNC2)c1cc(Cl)cc2[nH]ncc12,EC50,[1]; Vero C1008,1.53 µM
same,EC90,"[1]; Vero C1008, Baseline response 0 %, EC90 CI (lower) 0.641 uM, EC90 CI (upper) 7.527 uM, Hill slope 6.115, Maximum measured 127.201 %, Maximum response 100 %, Minimum measured 6.803 %, R squared 0.89",2.2 µM
same,EC50,[2]; Vero C1008,> 12.5 µM
same,EC90,"[2]; Vero C1008, Baseline response 0 %, Hill slope -0.294, Maximum measured 95.105 %, Maximum response 100 %, Minimum measured 44.86 %, R squared 0.086",> 12.5 µM
O=C(Nc1ccc2c(c1)CNC2)c1cc(F)cc(-c2cccnc2)c1,EC50,[1]; Vero C1008,6.3 µM
same,EC90,"[1]; Vero C1008, Baseline response 0 %, Hill slope 23.488, Maximum measured 123.724 %, Maximum response 100 %, Minimum measured 1.449 %, R squared 0.923",6.91 µM
same,EC50,[2]; Vero C1008,0.651 µM
same,EC90,"[2]; Vero C1008, Baseline response 0 %, Hill slope -0.704, Maximum measured 60.172 %, Maximum response 100 %, Minimum measured 15.025 %, R squared 0.92",> 12.5 µM
O=C(Nc1ccc2c(c1)CNC2)c1cc(F)c2[nH]ccc2c1,EC50,[1]; Vero C1008,24.5 µM
same,EC90,"[1]; Vero C1008, Baseline response 0 %, Hill slope 0.879, Maximum measured 122.421 %, Maximum response 100 %, Minimum measured -4.109 %, R squared 0.266",> 50 µM
same,EC50,[2]; Vero C1008,< 0.391 µM
same,EC90,"[2]; Vero C1008, Baseline response 0 %, Hill slope 3.427, Maximum measured 127.165 %, Maximum response 100 %, Minimum measured 69.586 %, R squared 0.325",< 0.391 µM
COc1cc(-c2cc(NC(=O)c3cc(F)cc4[nH]ncc34)cc3c2CNC3)ccn1,EC50,[1]; Vero C1008,3.92 µM
same,EC90,"[1]; Vero C1008, Baseline response 0 %, EC90 CI (lower) 3.129 uM, EC90 CI (upper) 14.718 uM, Hill slope 4.011, Maximum measured 135.364 %, Maximum response 100 %, Minimum measured -0.295 %, R squared 0.873",6.79 µM
same,EC50,[2]; Vero C1008,> 50 µM
same,EC90,"[2]; Vero C1008, Baseline response 0 %, Hill slope 0.386, Maximum measured 113.678 %, Maximum response 100 %, Minimum measured 63.234 %, R squared 0.283",> 50 µM
O=C(Nc1ccc2c(c1)CNC2)c1cc(F)cc2[nH]c(-c3cccc(F)c3)nc12,EC50,[1]; Vero C1008,> 50 µM
same,EC90,"[1]; Vero C1008, Baseline response 0 %, Hill slope 2.278, Maximum measured 12.458 %, Maximum response 100 %, Minimum measured -7.568 %, R squared 0.376",> 50 µM
same,EC50,[2]; Vero C1008,> 1.56 µM
same,EC90,"[2]; Vero C1008, Baseline response 0 %, Hill slope -0.435, Maximum measured 206.615 %, Maximum response 236.845 %, Minimum measured 186.851 %, R squared 0.182",> 1.56 µM
O=C(NCc1cccnc1)[C@H](Nc1ccc2c(c1)CNC2)c1cc(Cl)cc2[nH]ncc12,EC50,[1]; Vero C1008,> 50 µM
same,EC90,"[1]; Vero C1008, Maximum measured -0.377 %, Minimum measured -17.936 %",> 50 µM
same,EC50,[2]; Vero C1008,> 50 µM
same,EC90,"[2]; Vero C1008, Maximum measured 132.553 %, Minimum measured 89.084 %",> 50 µM
O=C(Nc1ccc2c(c1)CNC2)c1cccc2[nH]c(C(F)(F)F)cc12,EC50,[1]; Vero C1008,0.857 µM
same,EC90,"[1]; Vero C1008, Baseline response 0 %, EC90 CI (lower) 0.735 uM, EC90 CI (upper) 5.08 uM, Hill slope 2.705, Maximum measured 139.12 %, Maximum response 100 %, Minimum measured 13.658 %, R squared 0.773",1.93 µM
same,EC50,[2]; Vero C1008,11.6 µM
same,EC90,"[2]; Vero C1008, Baseline response 0 %, Hill slope -1.333, Maximum measured 97.959 %, Maximum response 100 %, Minimum measured 43.335 %, R squared 0.826",> 12.5 µM
O=C1Cc2c(cccc2C(=O)Nc2ccc3c(c2)CCNCC3)N1,EC50,[1]; Vero C1008,> 50 µM
same,EC90,"[1]; Vero C1008, Maximum measured 3.486 %, Minimum measured -0.899 %",> 50 µM
same,EC50,[2]; Vero C1008,> 50 µM
same,EC90,"[2]; Vero C1008, Maximum measured 144.677 %, Minimum measured 92.434 %",> 50 µM
O=C(Nc1cc2c(c(-c3ccnnc3)c1)CNC2)c1cc(Cl)cc2[nH]ncc12,EC50,[1]; Vero C1008,> 50 µM
same,EC90,"[1]; Vero C1008, Baseline response 0 %, Hill slope 0.648, Maximum measured 22.176 %, Maximum response 100 %, Minimum measured 1.861 %, R squared 0.877",> 50 µM
same,EC50,[2]; Vero C1008,> 6.25 µM
same,EC90,"[2]; Vero C1008, Baseline response 0 %, Hill slope 3.411, Maximum measured 174.98 %, Maximum response 100 %, Minimum measured 62.735 %, R squared 0.059",> 6.25 µM
O=C(Nc1ccc2c(c1)CNC2)c1cc(Cl)cc2[nH]c(-c3c[nH]c(=O)c(Br)c3)nc12,EC50,[1]; Vero C1008,> 50 µM
same,EC90,"[1]; Vero C1008, Baseline response 0 %, Hill slope 0.525, Maximum measured 33.05 %, Maximum response 100 %, Minimum measured 2.151 %, R squared 0.865",> 50 µM
same,EC50,[2]; Vero C1008,> 50 µM
same,EC90,"[2]; Vero C1008, Maximum measured 259.566 %, Minimum measured 84.768 %",> 50 µM
O=C(Nc1cc2c(c(C3=CC[C@H](O)CC3)c1)CNC2)c1cc(Cl)cc2[nH]ncc12,EC50,[1]; Vero C1008,46.6 µM
same,EC90,"[1]; Vero C1008, Baseline response 0 %, Hill slope 3.698, Maximum measured 56.446 %, Maximum response 100 %, Minimum measured 0.896 %, R squared 0.945",> 50 µM
same,EC50,[2]; Vero C1008,> 50 µM
same,EC90,"[2]; Vero C1008, Maximum measured 128.94 %, Minimum measured 80.48 %",> 50 µM
O=C(Nc1ccc2c(c1)CNC2)c1cc(Br)cc2c1nc1n2CCCC1,EC50,[1]; Vero C1008,> 50 µM
same,EC90,"[1]; Vero C1008, Maximum measured -3.355 %, Minimum measured -6.068 %",> 50 µM
same,EC50,[2]; Vero C1008,> 50 µM
same,EC90,"[2]; Vero C1008, Maximum measured 143.517 %, Minimum measured 80.126 %",> 50 µM
O=C(Nc1ccc2c(c1)CNC2)c1cc(Cl)cc2c1NCCC2,EC50,[1]; Vero C1008,> 50 µM
same,EC90,"[1]; Vero C1008, Maximum measured 8.781 %, Minimum measured -16.872 %",> 50 µM
same,EC50,[2]; Vero C1008,> 50 µM
same,EC90,"[2]; Vero C1008, Baseline response 0 %, Hill slope 0.298, Maximum measured 134.107 %, Maximum response 100 %, Minimum measured 52.01 %, R squared 0.047",> 50 µM
O=C1Cc2cc(C(=O)Nc3ccc4c(c3)CNC4)ccc2N1,EC50,[1]; Vero C1008,> 50 µM
same,EC90,"[1]; Vero C1008, Maximum measured 9.003 %, Minimum measured -9.167 %",> 50 µM
same,EC90,"[1]; Vero C1008, Baseline response 0 %, Hill slope 1.599, Maximum measured 7.523 %, Maximum response 100 %, Minimum measured -2.208 %, R squared 0.547",> 50 µM
same,EC50,[2]; Vero C1008,> 50 µM
same,EC90,"[2]; Vero C1008, Maximum measured 132.031 %, Minimum measured 88.326 %",> 50 µM
same,EC90,"[2]; Vero C1008, Maximum measured 147.509 %, Minimum measured 105.326 %",> 50 µM
same,EC90,"[2]; Vero C1008, Maximum measured 183.11 %, Minimum measured 101.645 %",> 50 µM
O=C(Nc1ccc2c(c1)CN[C@H]2CC1CC1)c1cc(F)cc2[nH]ncc12,EC50,[1]; Vero C1008,1.64 µM
same,EC90,"[1]; Vero C1008, Baseline response 0 %, Hill slope 24.148, Maximum measured 124.993 %, Maximum response 100 %, Minimum measured 2.983 %, R squared 0.936",1.79 µM
same,EC50,[2]; Vero C1008,1.03 µM
O=C(Nc1ccc2c(c1)CN[C@H]2C[C@H](O)CO)c1cc(F)cc2[nH]ncc12,EC50,[1]; Vero C1008,> 50 µM
same,EC90,"[1]; Vero C1008, Maximum measured 5.346 %, Minimum measured 2.665 %",> 50 µM
same,EC50,[2]; Vero C1008,> 50 µM
same,EC90,"[2]; Vero C1008, Baseline response 0 %, Hill slope 0.494, Maximum measured 181.349 %, Maximum response 100 %, Minimum measured 67.92 %, R squared 0.043",> 50 µM
O=C1Nc2ccc(C(=O)Nc3ccc4c(c3)CNC4)cc2C1=O,EC50,[1]; Vero C1008,> 50 µM
same,EC90,"[1]; Vero C1008, Baseline response 0 %, Hill slope 1.301, Maximum measured 24.355 %, Maximum response 100 %, Minimum measured -0.531 %, R squared 0.91",> 50 µM
same,EC50,[2]; Vero C1008,> 50 µM
same,EC90,"[2]; Vero C1008, Maximum measured 138.129 %, Minimum measured 92.792 %",> 50 µM
O=C(Nc1ccc2c(c1)CNC2)c1cccc2c1[C@]1(CCNC1)C(=O)N2,EC50,[1]; Vero C1008,> 50 µM
same,EC90,"[1]; Vero C1008, Baseline response 0 %, Hill slope 1.1, Maximum measured 3.95 %, Maximum response 100 %, Minimum measured -2.689 %, R squared 0.205",> 50 µM
same,EC50,[2]; Vero C1008,> 12.5 µM
same,EC90,"[2]; Vero C1008, Maximum measured 172.695 %, Minimum measured 97.519 %",> 12.5 µM
O=C(Nc1ccc2c(c1)CNC2)c1cccc2nc(O)ccc12,EC50,[1]; Vero C1008,> 50 µM
same,EC90,"[1]; Vero C1008, Maximum measured -4.519 %, Minimum measured -18.451 %",> 50 µM
same,EC50,[2]; Vero C1008,> 50 µM
same,EC90,"[2]; Vero C1008, Maximum measured 128.112 %, Minimum measured 90.404 %",> 50 µM
